Source: US20250346943A1, “DEGRADER COMPOUNDS OF QSOX1 mRNA” (UNIVERSITY OF FLORIDA RESEARCH FOUNDATION, INCORPORATED, priority 2022, published 2025)

Columns and labels:
MDA-MB-231 cells = assay: Invasion assay; assay type: cell-based, human; conditions: 48 h
Protocol: Invasion Assay. MDA-MB-231 cells were seeded in […] and treated with compound or transfected by ASO for 48 h as described in Cell Culture. After treatment for 48 h, the medium was replaced with fresh medium that contains same concentration of compound but lacking FBS for 8 h (serum starvation). ThinCert (GBO) 24-well inserts with 8 μm pores were coated with 100 μL of 0.5 mg/mL Matrigel (Fisher Scientific: CB40234) per well, and then cells were added into the insert (50,000 cells per well). Fresh growth medium with FBS was added to a 24-well plate (600 μL each well), and the inserts containing cells were placed on the top, allowing medium to cover the bottom of the insert. After 16 h, all medium was removed, and cells were washed by 1×DPBS twice. Cells were then fixed with 3% (w/v) paraformaldehyde (PFA) in 1×DPBS at room temperature for 30 min, followed by staining with Crystal Violet (10 mg/mL; 4:1H2O:MeOH) at room temperature for 20 min. A cotton swab was used to gently remove non-invasive cells on sitting on top of the Matrigel. The inserts were then imaged under a regular optical microscope (3 views per well), and the number of invasive cells were counted manually.

QSOX1-a protein = QSOX1-a protein abundance by Western blotting in MDA-MB-231 cells; assay type: cell-based, human; conditions: 20 μM
Protocol: Measuring Protein Abundance by Western Blotting. MDA-MB-231 cells were seeded in 6-well plates at ˜50% confluency and treated with vehicle (DMSO) or compound as described above but without EU treatment. After 16 h, the compound-containing growth medium was removed and replaced with fresh medium containing compound (re-dosing). After an additional 32 h incubation, total protein was harvested (48 h total treatment time). The cells were then washed twice with cold 1×DPBS, and total protein was harvested by using Mammalian Protein Extraction Reagent (M-PER, Thermo Scientific) per the manufacturer's protocol. Protein concentration was quantified by using BCA Protein Assay Kit (Pierce), and the proteins were separated by using 10% SDS-polyacrylamide gel (20 μg protein per lane). After gel electrophoresis in 1× Running Buffer (50 mM MOPS, 50 mM Tris-base, pH 7.5, 1 mM EDTA, and 0.1% (w/v) SDS) at 120 V for 1 h, the proteins were transferred to a PVDF membrane (0.45 μm, Cytiva) at 300 mA for 1 h in 1× Transfer Buffer (25 mM Bicine, 25 mM Tris-base, pH 7.5, 1:4 MeOH:H2O). The membrane was blocked with 5% (w/v) non-fat dry milk in TBST (1×TBS containing 0.1% (v/v) Tween-20) for 1 h at room temperature. The primary antibody for QSOX1 protein (Cat #10092-932, Proteintech) or SQSTM1 protein (Cat #ab 109012, Abcam) was incubated with 1:1000 dilutions at 4° C. for 16 h. The membrane was then washed by TBST four times (5 min each) and then incubated with the secondary antibody (Cat #7074S, Cell Signaling) with 1:5000 dilution at room temperature for 2 h. The membrane was washed with TBST four times (5 min each) and imaged by using a SuperSignal West Pico Chemiluminescent Substrate (Pierce) per manufacturer's protocol. The blot was stripped by washing the membrane in 1× Stripping Buffer (200 mM glycine, pH 2.2, 4 mM SDS, 1% (v/v) Tween 20) at room temperature for 30 min, followed by blocking again as described above. […] Expression levels of proteins were quantified based on band intensity by using ImageJ. […]

RNase L = target: T1, RNase L (Homo sapiens, UniProt Q05823); conditions: versus the RNase L recruiting module of F1-RIBOTAC; cited from earlier work
T1 sequence (Q05823 1-741): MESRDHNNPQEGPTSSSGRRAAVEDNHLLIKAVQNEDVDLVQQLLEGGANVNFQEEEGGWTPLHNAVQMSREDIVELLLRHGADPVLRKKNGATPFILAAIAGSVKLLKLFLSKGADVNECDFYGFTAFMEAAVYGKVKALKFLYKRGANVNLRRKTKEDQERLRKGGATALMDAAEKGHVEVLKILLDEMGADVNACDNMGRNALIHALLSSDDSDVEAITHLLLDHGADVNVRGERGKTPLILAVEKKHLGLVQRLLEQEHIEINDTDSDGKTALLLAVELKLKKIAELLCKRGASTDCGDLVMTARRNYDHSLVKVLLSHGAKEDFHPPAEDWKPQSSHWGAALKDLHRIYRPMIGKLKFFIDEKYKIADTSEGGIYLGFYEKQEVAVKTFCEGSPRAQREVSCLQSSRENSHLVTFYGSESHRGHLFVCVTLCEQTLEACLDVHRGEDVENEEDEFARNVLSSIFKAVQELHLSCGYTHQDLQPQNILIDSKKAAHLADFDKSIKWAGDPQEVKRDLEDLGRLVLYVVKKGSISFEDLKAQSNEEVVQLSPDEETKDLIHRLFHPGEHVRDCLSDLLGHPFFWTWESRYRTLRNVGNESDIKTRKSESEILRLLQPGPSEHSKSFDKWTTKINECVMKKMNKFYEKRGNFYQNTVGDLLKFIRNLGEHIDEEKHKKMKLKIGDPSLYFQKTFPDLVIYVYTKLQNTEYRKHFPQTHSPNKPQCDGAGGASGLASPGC

[1] = target: QSOX1 5′UTR hairpin (model of the QSOX1-a binding site); assay: In vitro binding by fluorescence polarization, Cy5-labeled WT RNA; set-up: species or system human
Protocol: In Vitro Binding by Measuring Changes in Fluorescence Polarization. Cy5-labeled RNA was folded by heating at 95° C. for 2 min in 1× Folding Buffer and cooled on ice. Serial dilutions of F1 (200 to 0.4 μM, 1:1 dilutions) were prepared in 1× Folding Buffer with 4% (w/v) bovine serum albumin (BSA) with constant DMSO concentration (2% v/v). The compound solutions (10 μL) were added to a well of non-binding 384-well plate (Corning). An equal volume of folded RNA was adding to each well with a final concentration of 50 nM. The samples were incubated at room temperature for 30 min, and then fluorescence polarization was measured with a Molecular Devices SpectraMax M5 plate reader with an excitation wavelength of 640 nm and an emission wavelength of 680 nm.

SMILES: CCOC(=O)C1=C(Nc2ccccc2)S/C(=C\c2ccc(O)c(OCCOCCOCCOCCNC(=O)CCC(=O)N(C)[C@H]3CC[C@@H](c4ccc(Cl)c(Cl)c4)c4ccccc43)c2)C1=O [Compound F1-CTRL]
- effect on invasion (MDA-MB-231 cells): no significant effect
- reduction of QSOX1-a protein (QSOX1-a protein): ~15%
- reduction of RNase L recruiting activity (RNase L): > 20 fold
- Kd [1]: 10 ± 3 µM
